US7300926B2, “Steroidal quinols and their use for estrogen replacement therapy” (University of Florida Research Foundation, Inc., priority 2002, dated 2007)
Read-outs that look alike come from different tables or passages of the source.

What was measured:
[1] = Uterine weight in ovariectomized rats; format: in vivo, rat; conditions: OVX rats; for uterine weight compared with control group: 200 μg/kg sc; for Uterine Weight (g, ± SEM): 200 μg/kg sc in corn oil, 2 hours prior to MCAO, harvested 24 hours after reperfusion
Experimental: Female, Sprague rats (200-250 g, Charles River, Wilmington, Mass.) were acclimatized for three days prior to surgery. Bilateral ovariectomy (OVX) was performed two weeks prior to middle cerebral artery occlusion (MCAO). Animals were anesthetized by intraperitoneal injection of ketamine (60 mg/kg) and xylazine (10 mg/kg). Rectal temperature was maintained at 37.5±0.5° C. during procedure. The middle cerebral artery was occluded for one hour then suture was withdrawn for reperfusion. […] Animals were decapitated 24 hours after reperfusion. Uteruses were harvested, blotted, and weighed for comparison among treatment groups.

[2] = molecular target: T1, recombinant estrogen receptor α (ERα) (Homo sapiens, UniProt P03372); assay: Competition binding assay, […] EFC Estrogen Chemiluminescence Assay
T1 construct: purchased Panvera, Madison, Wis
T1 sequence (P03372 1-595): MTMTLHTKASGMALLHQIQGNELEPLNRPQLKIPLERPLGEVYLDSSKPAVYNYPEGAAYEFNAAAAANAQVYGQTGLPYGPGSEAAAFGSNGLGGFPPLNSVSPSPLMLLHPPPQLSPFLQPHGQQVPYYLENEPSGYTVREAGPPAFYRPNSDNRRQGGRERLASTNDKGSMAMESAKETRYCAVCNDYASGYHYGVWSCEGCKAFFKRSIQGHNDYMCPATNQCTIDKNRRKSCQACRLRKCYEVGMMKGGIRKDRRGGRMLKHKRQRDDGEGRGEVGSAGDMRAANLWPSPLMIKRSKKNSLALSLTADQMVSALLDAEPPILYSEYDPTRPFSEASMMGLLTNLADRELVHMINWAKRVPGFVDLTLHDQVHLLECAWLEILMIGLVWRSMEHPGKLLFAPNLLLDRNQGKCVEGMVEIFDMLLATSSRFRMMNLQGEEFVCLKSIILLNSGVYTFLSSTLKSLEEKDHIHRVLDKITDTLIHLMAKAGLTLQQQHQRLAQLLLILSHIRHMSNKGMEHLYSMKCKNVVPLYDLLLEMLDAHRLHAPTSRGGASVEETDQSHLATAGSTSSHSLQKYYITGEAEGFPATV
Experimental: (§1) Competition binding assays were performed using an enzyme fragment complementation (EFC) method described in the […] EFC Estrogen Chemiluminescence Assay kit (Fremont, Calif.). […] The enzyme acceptor was then added for another 1.5 hours after which chemiluminescence substrate was added for another hour. Relative luminescences were determined using a Biotek FL600 plate reader (Biotek Instruments, Winooski, Vt.).

[3] = molecular target: T2, recombinant estrogen receptor β (ERβ) (Homo sapiens, UniProt Q92731); assay: as above
T2 construct: purchased Panvera, Madison, Wis
Experimental: as §1

[4] = In vitro reduction of estrone-quinol to estrone by reducing agents in phosphate buffer (LC/MS); format: in vitro ADME; conditions: for extent of reductive conversion: pH 7.5, 37° C.
Experimental: Estrone-quinol (0.1 mM) was incubated at 37° C. in 0.1 M phosphate buffer pH 7.5 in the presence of 1 mM of NADH, NADPH, sodium ascorbate, and glutathione (GSH). Aliquots (500 μl) were taken after 60 minutes of incubation, and extracted with ethyl acetate (3×0.5 mL) and the mixture vortexed for 1 minute and centrifuged at […] for 5 minutes. After removing the solvent, the residue of the combined organic extracts was analyzed for their estrone content by LC/MS/MS.
Mass spectra were recorded on a quadrupole ion-trap instrument (LCQ, ThermoFinnigan) using positive-ion APCI as the method of ionization. […] Compound identification was based on retention time (tR), APCI mass spectra, MS/MS and MS^3 with authentic compounds as references. […].
At incremental time points, […] aliquots were removed into ice-cooled centrifuge tubes, and 50 μl of glacial acetic acid was added. After immediate extraction with ethyl acetate (2×500 μl), the organic layer was evaporated under nitrogen stream at room temperature. Reconstitution of the samples with the LC mobile phase was followed by LC/MS analyses. For control, no reducing agents were used.
[…]. […] Kinetic analysis of the microsomal metabolism was done by nonlinear curve-fitting (Scientist for Windows; MicroMath, Inc., Salt Lake City, Utah) presuming consecutive first-order processes in the cascade of estrone-quinol→estrone→estrone-metabolites.

[5] = Cerebral microdialysis, reduction of estrone-quinol to estrone in vivo; parameters: species or system rat; conditions: probe perfused at 1 μl/min with 10 picomole/μL in aCSF, ventral hippocampus
Excerpt: Male, Sprague rats (300-400 g) were anesthetized, placed in a stereotaxic instrument, and a guide cannula (CMA/12 guide cannula) was implanted into the ventral hippocampus under aseptic conditions. The guide cannula was fixed to the skull, together with stainless steel screws attached into additional two holes, with dental acrylics. Before starting the experiment (usually 5-7 days after the implantation of the guide cannula implantation) the rats were placed in a containment unit (BAS, Inc.) for at least 30 minutes. Then a microdialysis probe (CMA/12 polycarbonate membrane diameter 0.5 mm; membrane length 4 mm; molecular cut off: 5,000 Da) was inserted into the ventral hippocampus through the guide cannula. After insertion, the microdialysis probe was perfused with an artificial cerebrospinal fluid (aCSF) at a flow rate of 1 μl/min. maintained by a microperfusion pump (BAS BeeStinger) attached to the probe via polyethylene tubing and a liquid swivel. After equilibration for 50 minutes, an automatic refrigerated fraction collector (BAS HoneyComb) was used for continuous sampling of the probe efflux for 24 hours in 60 minute fractions collected into 300-μl glass vials (control). […]

T2 sequence (Q92731 whole entry): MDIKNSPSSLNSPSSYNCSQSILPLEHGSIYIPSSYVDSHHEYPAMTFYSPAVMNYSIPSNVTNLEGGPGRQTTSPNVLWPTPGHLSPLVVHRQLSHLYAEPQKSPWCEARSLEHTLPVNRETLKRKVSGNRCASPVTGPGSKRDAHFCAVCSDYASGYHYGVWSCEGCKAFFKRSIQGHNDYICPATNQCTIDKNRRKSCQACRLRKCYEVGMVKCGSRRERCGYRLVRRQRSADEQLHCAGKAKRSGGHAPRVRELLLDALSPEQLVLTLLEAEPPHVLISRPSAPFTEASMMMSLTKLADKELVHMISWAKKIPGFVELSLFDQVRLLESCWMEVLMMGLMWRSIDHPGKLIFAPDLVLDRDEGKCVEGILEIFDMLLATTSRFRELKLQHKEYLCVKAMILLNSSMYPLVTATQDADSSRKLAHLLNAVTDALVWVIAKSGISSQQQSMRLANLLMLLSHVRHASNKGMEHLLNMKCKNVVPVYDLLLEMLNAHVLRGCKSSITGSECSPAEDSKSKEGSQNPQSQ

C[C@]12CC[C@@H]3c4ccc(O)cc4CC[C@H]3[C@@H]1CCC2=O [E1, estrone, reference compound]
uterine weight compared with control group [1]: doubled
Uterine Weight (g, ± SEM) [1]: 0.222 ± 0.022 g

C[C@]12CC[C@H]3[C@@H](CCC4=CC(=O)C=C[C@@]43O)[C@@H]1CCC2=O [E1-quinol, 10β-hydroxyestra-1,4-diene-3,17-dione]
IC50 [2]: > 10 µM
IC50 [3]: > 10 µM
initial rate of second-order reaction for the reduction by NADPH ([4]; 10-fold excess of NADPH, microsome-free buffer solution, identical incubation conditions): 0.62 ± 0.03 nmol/min
extent of reductive conversion ([4]; Example 4, 1.0 mM NADH): significant extent of reductive conversion
extent of reductive conversion ([4]; Example 4, 1.0 mM NADPH): significant extent of reductive conversion
flux of entry into the brain [5]: about 2 picomole/minute
uterine weight compared with control group [1]: no difference
Uterine Weight (g, ± SEM) [1]: 0.115 ± 0.010 g

C[C@]12CC[C@H]3[C@@H](CCC4=CC(=O)C=C[C@@]43O)[C@@H]1CC[C@@H]2O [E2-quinol]
IC50 ([2]; ERα, read-out: IC50): > 10 µM
IC50 ([3]; ERβ, read-out: IC50): > 10 µM
